Experimental data from the supplement of paper PMC10307832.

Columns and labels:
Assay in all cases: relative viability (nuclei count vs DMSO), 5 days (fraction); higher = more cells survive
AZ628 + Olaparib = compound: CC1=C(C=C(C=C1)NC(=O)C2=CC(=CC=C2)C(C)(C)C#N)NC3=CC4=C(C=C3)N=CN(C4=O)C [AZ628] + O=C(c1cc(Cc2n[nH]c(=O)c3ccccc23)ccc1F)N1CCN(C(=O)C2CC2)CC1 [Olaparib] (partner 8 µM)
How it was run: (§1)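 Relative viability divides the nuclei count in treated wells by that in vehicle wells. Lung cancer cell lines were seeded in 1536-well plates, dosed by pin tool the next day, and fixed and stained after 5 days in one step with final 0.05% Triton X-100, 1% formaldehyde and 1 ug/ml Hoechst. Dosing was a single drug or a fixed anchor-drug dose plus five library-drug doses (not always all listed) in √10 steps, and values are medians of duplicate plates imaged at 4×.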

[1] = compound: C[As](C)SC[C@H](NC(=O)CC[C@H](N)C(=O)O)C(=O)NCC(=O)O [Darinaparsin] + CS(=O)(=O)N1CCN(Cc2cc3nc(-c4cccc5[nH]ncc45)nc(N4CCOCC4)c3s2)CC1 [Pictilisib] (partner 1 µM)
How it was run: as §1

QS11 + Olaparib = compound: C1CC2=C(C1)C=C(C=C2)OC3=NC(=C4C(=N3)N(C=N4)CC5=CC=C(C=C5)C6=CC=CC=C6)N[C@@H](CC7=CC=CC=C7)CO [QS11] + O=C(c1cc(Cc2n[nH]c(=O)c3ccccc23)ccc1F)N1CCN(C(=O)C2CC2)CC1 [Olaparib] (partner 8 µM)
How it was run: as §1

AZ628 + Bortezomib = compound: CC1=C(C=C(C=C1)NC(=O)C2=CC(=CC=C2)C(C)(C)C#N)NC3=CC4=C(C=C3)N=CN(C4=O)C [AZ628] + CC(C)C[C@H](NC(=O)[C@H](Cc1ccccc1)NC(=O)c1cnccn1)B(O)O [Bortezomib] (partner 0.002 µM)
How it was run: as §1

LCLC-97TM1
relative viability (AZ628 + Olaparib; first compound 0.08 µM): 0.517
relative viability (AZ628 + Olaparib; first compound 0.253 µM): 0.371
relative viability (AZ628 + Olaparib; first compound 0.8 µM): 0.356
relative viability (AZ628 + Olaparib; first compound 2.53 µM): 0.289
relative viability (AZ628 + Olaparib; first compound 8 µM): 0.202
relative viability ([1]; first compound 0.08 µM): 0.191
relative viability ([1]; first compound 0.8 µM): 0.153
relative viability ([1]; first compound 2.53 µM): 0.15
relative viability ([1]; first compound 8 µM): 0.178
relative viability (QS11 + Olaparib; first compound 0.253 µM): 0.428
relative viability (QS11 + Olaparib; first compound 2.53 µM): 0.495
relative viability (QS11 + Olaparib; first compound 8 µM): 0.464
relative viability (AZ628 + Bortezomib; first compound 0.08 µM): 0.643
relative viability (AZ628 + Bortezomib; first compound 0.253 µM): 0.381
relative viability (AZ628 + Bortezomib; first compound 0.8 µM): 0.199
relative viability (AZ628 + Bortezomib; first compound 2.53 µM): 0.522
relative viability (AZ628 + Bortezomib; first compound 8 µM): 0.108
